Data reported in US20200129476A1, “PARP Inhibitor in Combination with a Glucocorticoid and/or Ascorbic Acid and/or a Protein Growth Factor for the Treatment of Impaired Wound Healing” (AKRIBES BIOMEDICAL GMBH, priority 2017, published 2020).
“Also recorded” adds a separate entry of the source.

Tests used:
[1] = system: primary human dermal fibroblasts (HDF); assay: Primary human dermal fibroblast (HDF) proliferation assay (2D), with or without wound exudate; assay type: cell-based; settings: for cell proliferation under wound exudate-induced inhibition: FIG. 22, WE #43 and #78 used with veliparib; for HDF proliferation, PARP inhibitor plus PDGF: PARP inhibitor dose series + PDGF 20 ng/ml, WE #78 (FIG. 18); for enhancement of PARP inhibitor effect on fibroblast proliferation: added to PARP inhibitor titration
Description: (§1) Primary human dermal fibroblasts (HDF) were purchased from CELLnTEC, Bern. They were routinely grown in Dulbecco's modified Eagle's medium (DMEM) containing 10% FCS, 2 mM glutamine, and 100 U/ml penicillin/100 μg/ml streptomycin. Media, antibiotics, and glutamine were bought from Lonza. The cells were used at passage 5-15. Cells were trypsinized and seeded at 5000 cells/well in 200 μl into the inner wells of 96-well plates. The outer wells were loaded with sterile water. The cells were allowed to adhere overnight and then incubated for 72 hours at 37° C. under the following conditions: graded compound concentrations or 20 ng/ml PDGF-BB (Tonbo Biosciences) in the absence or presence of different dilutions of sterile-filtered WE in medium. For control samples, 200p1 medium was added instead of specific stimuli. Alternatively, the cells were seeded into 384-well plates at 2500 cells/well directly together with test compounds or growth factors and WE or medium in a total volume of […].
(§2) At the end of the 72-hour incubation period, supernatants were removed for the determination of IL-1ß, and the cells were fixed with 4% paraformaldehyde (Morphisto) for 15 minutes at room temperature and washed 3 times with PBS. A control plate was fixed after the overnight adherence of the cells (day 1) to determine the starting cell number.
Total cellular protein was determined as a measure of cell number by staining the fixed cells with sulforhodamine B (SRB, Sigma). A 0.4% SRB solution in 1% acetic acid was added to the wells for 30 minutes. The wells were then washed with 1 acetic acid until the wash solution remained colorless. After drying, the dye was eluted with 10 mM Tris.HCl, pH8.5, and absorbance was measured either at 550 or 492 nm for lower and higher cell densities, respectively. The average absorbance of the sample representing the day 1 starting cell number (for 96-well plates) was subtracted from the absorbance values of the WE-treated cells.
All experiments were carried out in triplicate for each sample and concentration, and means±standard deviation (SD) were used for the evaluation of the experiment. Results are expressed as percentage of control values for unstimulated cells.
(§3) Low molecular weight compounds (see list in Table 1) were dissolved in DMSO (Bioreagent for cell culture, Sigma) at 10 mM or 100 mM and diluted at least 1:1000 in medium for cellular assays (final DMSO concentration ≤0.1%).
(§4) Cells were incubated with compounds for 72 hours in proliferation assays and up to 8 days for FDM assay (refreshed after 4 days). When compounds were tested for their effect on WE stimulation, the incubation of cells with compounds was started and ended simultaneously with WE-incubation.

[2] = system: primary human dermal fibroblasts (HDF); assay: Fibroblast-derived matrix (FDM) formation assay (3D), with or without wound exudate; assay type: cell-based; settings: for FDM formation, veliparib combined with glucocorticoid: WE #78, patient with diabetes, immunosuppression after kidney transplantation (FIG. 7)
Description: HDF cells were seeded at 5000 cells/well on day −3 into 96-well tissue culture plates (1250 cells/well for 384-well plates), which had been pre-coated for 1 hour at 37° C. with 0.2% gelatin solution (Sigma). When the cells reached confluence (=day 0), a matrix promoting supplement (vitamin C: 2-phospho-L-ascorbic acid trisodium salt, 100 μg/ml; Sigma) was added together with test samples containing PDGF-BB, TGF-ß1 or graded concentrations of compounds −/+WE as described for the HDF proliferation assay. After 4 days, medium was replaced by fresh vitamin C- and stimulus- as well as compound-containing medium, maintaining the conditions initiated on day 0. TGF-ß1 and PDGF-BB were included as positive controls to promote FDM formation and cell growth, respectively. After a total incubation time of 8 days, FDM production was measured in fixed cultures via SRB staining and evaluated as described above. In some cases, the experiment was stopped and evaluated already on day 4.
as §3, with “≤0.1%). Compounds were typically tested in half-logarithmic dilution series (1:3.33), starting at 10 μM or 100 μM as the highest compound concentration.” for “≤0.1%).”
as §4

[3] = system: IL-1ß; assay: IL-1ß secretion by HDF in the presence of wound exudate (ELISA); assay type: cell-based, human; settings: FIG. 22; WE #43 and #78 used with veliparib
Description: as §1, §2
IL-1ß levels were determined with a commercial ELISA kit. The amount of IL-1ß contained in the wound exudate added to the cells was subtracted from the total IL-ß in the supernatants in order to determine the cytokine secreted by the cells.

[4] = system: alpha-smooth muscle actin (α-SMA); assay: Immunolocalization of alpha-smooth muscle actin in 2D fibroblast culture (myofibroblast differentiation); assay type: cell-based, human; settings: TGF-ß 20 ng/ml
Description: as §1, with “The cells were allowed to adhere overnight and then incubated for 72 hours at 37° C. under the following conditions: graded compound concentrations or 20 ng/ml PDGF-BB (Tonbo Biosciences) in the absence or presence of different dilutions of sterile-filtered WE in medium.” left out
After fixation with paraformaldehyde, the cells were incubated for 1 hour at room temperature with a monoclonal mouse-anti-human antibody against alpha-smooth muscle actin (α-SMA) from e-Bioscience, washed 3 times with PBS and developed with an Alexa Fluor-labelled donkey-anti-mouse IgG (Molecular Probes). The cells were washed 3 times with PBS and examined in a Zeiss ZEISS Observer.Z1 microscope, using the software AxioVision 48.

[5] = presence of WE #78 (diabetic patient)
[6] = presence of wound exudate (WE) of patients, several or unspecified WE
[7] = presence of ⅔ of the wound exudates tested
[8] = absence of wound exudate (normal medium)

Oc1cccc2c(O)nccc12 [1,5-IQD, 1,5-Isoquinolinediol]
fibroblast (HDF) proliferation ([1]; presence of WE #43): less active or inactive
fibroblast (HDF) proliferation [1, 5]: less active or inactive

NC(=O)c1cccc(N)c1 [3-AB, 3-Aminobenzamide]
fibroblast (HDF) proliferation ([1]; presence of WE #43): less active or inactive
fibroblast (HDF) proliferation [1, 5]: less active or inactive

CN(C)Cc1ccc(-c2nc3cccc4c3n2CCNC4=O)cc1 [AG-14361]
fibroblast-derived matrix (FDM) formation ([2]; presence of WE #78 (FIG. 9)): strong positive effect
IL-1ß secretion induced by wound exudate [3]: reducing IL-1ß secretion
cell proliferation under wound exudate-induced inhibition [1]: enhanced cell proliferation

COC1CCN(C(=O)c2cc(Cc3n[nH]c(=O)c4ccccc34)ccc2F)CC1 [AZD-2461]
fibroblast-derived matrix (FDM) formation ([2]; presence of WE #78 (FIG. 9)): strong positive effect
IL-1ß secretion induced by wound exudate [3]: reducing IL-1ß secretion
cell proliferation under wound exudate-induced inhibition [1]: enhanced cell proliferation

CN(C)CC(=O)Nc1ccc2[nH]c(=O)c3ccccc3c2c1.Cl [PJ-34, N-(6-Oxo-5,6-dihydro-phenanthridin-2-yl)-N,N-dimethylacetamide.HCl]
fibroblast (HDF) proliferation ([1]; presence of WE #43): less active or inactive
fibroblast (HDF) proliferation [1, 5]: less active or inactive

C[C@H]1C[C@H]2[C@@H]3CCC4=CC(=O)C=C[C@]4(C)[C@@]3(Cl)[C@@H](O)C[C@]2(C)[C@@]1(O)C(=O)CO [beclomethasone]
fibroblast (HDF) proliferation [1, 6]: Qualitatively identical results

CC1(COc2ccc3c(c2)ncn3-c2ccc3cccc(N4CCC(N)CC4)c3n2)COC1 [crenolanib, Crenolanib]
effect on PDGF-enhanced proliferation ([1]; crenolanib 1 μM, PDGF 20 ng/ml, absence of WE (FIG. 19)): completely abrogated
fibroblast (HDF) proliferation [1, 5]: without any effect

C[C@@H]1C[C@H]2[C@@H]3C[C@H](F)C4=CC(=O)C(Cl)=C[C@]4(C)[C@@]3(F)[C@@H](O)C[C@]2(C)[C@@]1(O)C(=O)CO [halomethasone]
fibroblast (HDF) proliferation [1, 6]: Qualitatively identical results

C[C@]12CCC(=O)C=C1CC[C@@H]1[C@@H]2[C@@H](O)C[C@@]2(C)[C@H]1CC[C@]2(O)C(=O)CO [hydrocortisone, Hydrocortisone]
fibroblast (HDF) proliferation [1, 6]: Qualitatively identical results; also recorded: effect was confirmed

O=C(c1cc(Cc2n[nH]c(=O)c3ccccc23)ccc1F)N1CCN(C(=O)C2CC2)CC1 [olaparib]
fibroblast-derived matrix (FDM) formation ([2]; presence of WE #78 (FIG. 9)): strong positive effect
IL-1ß secretion induced by wound exudate [3]: reducing IL-1ß secretion
cell proliferation under wound exudate-induced inhibition [1]: enhanced cell proliferation
HDF proliferation, PARP inhibitor plus PDGF [1]: even further enhanced by the addition of PDGF
fibroblast (HDF) proliferation [1, 5]: dose-dependent increase of HDF proliferation

C[C@]12C=CC(=O)C=C1CC[C@@H]1[C@@H]2[C@@H](O)C[C@@]2(C)[C@H]1CC[C@]2(O)C(=O)CO [prednisolone, Prednisolone]
fibroblast (HDF) proliferation [1, 6]: Qualitatively identical results; also recorded: effect was confirmed

C[C@]12C=CC(=O)C=C1CC[C@@H]1[C@@H]2[C@@H](O)C[C@@]2(C)[C@H]1CC[C@]2(O)C(=O)CO [prelone]
fibroblast (HDF) proliferation [1, 6]: Qualitatively identical results

CNCc1ccc(-c2[nH]c3cc(F)cc4c3c2CCNC4=O)cc1 [rucaparib]
fibroblast-derived matrix (FDM) formation ([2]; presence of WE #78 (FIG. 9)): strong positive effect
IL-1ß secretion induced by wound exudate [3]: reducing IL-1ß secretion
cell proliferation under wound exudate-induced inhibition [1]: enhanced cell proliferation
HDF proliferation, PARP inhibitor plus PDGF [1]: even further enhanced by the addition of PDGF
fibroblast (HDF) proliferation [1, 5]: dose-dependent increase of HDF proliferation

O=C1O[C@H]([C@@H](O)CO)C(O)=C1O [vitamin C, ascorbic acid]
fibroblast-derived matrix (FDM/ECM) formation ([2]; absence of wound exudate): enhances both fibroblast proliferation in the fibroblast proliferation assay (also called 2D assay) and fibroblast-derived matrix (FDM) formation
fibroblast-derived matrix (FDM) formation [2, 7]: no effect on fibroblast proliferation in the 2D assay or fibroblast-derived matrix (FDM) formation in the 3D assay
fibroblast (HDF) proliferation [1, 8]: enhances HDF proliferation/ECM formation; also recorded: enhances both fibroblast proliferation
enhancement of PARP inhibitor effect on fibroblast proliferation ([1]; WE #43, different patient (FIG. 15)): strong and consistent synergistic effect could be confirmed; also recorded: synergistically enhance the PARP inhibitor compound effects
enhancement of PARP inhibitor effect on fibroblast proliferation ([1]; dexamethasone 3 nM, vitamin C 100 μg/ml, WE #78 (FIG. 14)): enhance the positive enhancing effect of the PARP antagonists; also recorded: synergistically enhance the PARP inhibitor compound effects
fibroblast (HDF) proliferation [1, 7]: no effect on HDF proliferation/ECM formation; also recorded: no effect on fibroblast proliferation in the 2D assay

Medroxyprogesterone
FDM formation, veliparib combined with glucocorticoid [2]: enhance the effect of veliparib on rescuing fibroblast-derived matrix (FDM) formation after wound exudate treatment
FDM formation, veliparib combined with glucocorticoid ([2]; listed as MED): enhance the effect of veliparib on rescuing FDM formation after WE treatment
fibroblast-derived matrix (FDM/ECM) formation ([2]; presence of wound exudate, WE not specified (FIG. 6: microscopy)): surprisingly enhances HDF proliferation and ECM formation
fibroblast (HDF) proliferation [1, 6]: Qualitatively identical results; also recorded: surprisingly enhances HDF proliferation and ECM formation; also recorded: effect was confirmed

TGF-ß: Transforming growth factor beta, protein growth factor
staining for α-SMA ([4]; absence of WE, veliparib 10 μM): increased the staining for the myofibroblast marker alpha-smooth muscle actin (α-SMA)
staining for α-SMA ([4]; presence of WE #78): does not induce α-SMA on its own; also recorded: did not induce α-SMA on its own

B1: PDGF: Platelet-derived growth factor, protein growth factor (Tonbo Biosciences) (protein, UniProt P01127 82-190, looked up)
Platelet-derived growth …: SLGSLTIAEPAMIAECKTRTEVFEISRRLIDRTNANFLVWPPCVEVQRCSGCCNNRNVQCRPTQVQLRPVQVRKIEIVRKKPIFKKATVTLEDHLACKCETVAAARPVT
modifications: PDGF-BB homodimer
HDF proliferation, PDGF added to talazoparib ([1]; PDGF 20 ng/ml + talazoparib 0.3 μM, WE #78 (FIG. 19)): further enhanced this recovery
fibroblast (HDF) proliferation [1, 8]: induces HDF proliferation; also recorded: enhances proliferation
fibroblast (HDF) proliferation [1, 5]: has no effect; also recorded: inactive; also recorded: without any effect
